Measured values published in publication PMC6718478, “A Comprehensive Antimicrobial Activity Evaluation of the Recombinant Microcin J25 Against the Foodborne Pathogens Salmonella and E. coli O157:H7 by Using a Matrix of Conditions” (Frontiers in Microbiology, 2019).
Positions of bridges follow the written chain, without caps; N, C: chain ends. Residues, ends and D or L forms follow the SMILES beside them.

How the values were obtained:
S. Pullorum [1] = test: Antimicrobial activity after treatment with simulated intestinal fluid (SIF); type: in vitro ADME, Salmonella Pullorum; conditions: simulated intestinal fluid, 2, 4, and 6 h; 1 × MIC; inhibition zone; three replicate experiments
Experimental: (§1) Biological fluids (SGF; SIF) and serum were prepared as described previously ([Liu et al., 2013]; [Xia et al., 2015]). Then, assays of the antibacterial activity of recombinant MccJ25 in SGF, SIF and serum were performed. S. Pullorum was grown in Mueller-Hinton broth (MHB, Difco Laboratories, Detroit, MI, United States). One milliliter of bacterial inoculum was transferred into 9 mL of each medium with the recombinant MccJ25 and into corresponding control medium without the recombinant MccJ25. LB agar inoculated with the indicator bacteria S. Pullorum (approximately 10^5 viable cells per mL) was poured over plates fitted with Oxford cups to make wells. Hundred and fifty μL of a 1 × MIC final concentration of recombinant MccJ25 samples that had previously been treated with SGF, SIF and serum for 2, 4, and 6 h, respectively, were added to the wells. The agar overlays were incubated overnight at 37°C, and the inhibition zones were recorded.

S. Pullorum [2] = test: Antimicrobial activity after treatment with simulated gastric fluid (SGF); type: in vitro ADME, Salmonella Pullorum; conditions: simulated gastric fluid, 2, 4, and 6 h; 1 × MIC; inhibition zone; three replicate experiments
Experimental: as §1

trypsin = test: Resistance to a single protease, inhibition zone read-out; type: in vitro ADME; conditions: trypsin for 2 and 4 h; 1 × MIC; inhibition zone against S. Pullorum; three replicate experiments
Experimental: (§2) The resistance of recombinant MccJ25 to pepsin, trypsin and chymotrypsin was evaluated as described previously ([Chen et al., 2009]; [Meng et al., 2019]) with slight modification. The indicator Salmonella was prepared (approximately 1 × 10^7 CFU/mL), and 1 mL of bacterial inoculum was transferred into 9 mL of each medium with the recombinant MccJ25 and into corresponding control media without the recombinant MccJ25. LB agar inoculated with the indicator bacteria S. Pullorum (approximately 10^5 viable cells per mL) was poured over plates that had been fitted with Oxford cups to make wells. Then, 150 μL of a 1 × MIC final concentration of recombinant MccJ25 that had been previously treated under various conditions for 2 and 4 h were added to the wells. The agar overlays were incubated overnight at 37°C, and the inhibition zones were recorded.

pepsin = test: as above; type: in vitro ADME; conditions: pepsin for 2 and 4 h; 1 × MIC; inhibition zone against S. Pullorum; three replicate experiments
Experimental: as §2

chymotrypsin = test: as above; type: in vitro ADME; conditions: chymotrypsin for 2 and 4 h; 1 × MIC; inhibition zone against S. Pullorum; three replicate experiments
Experimental: as §2

S. Pullorum [3] = test: Antimicrobial activity after treatment with serum; type: in vitro ADME, Salmonella Pullorum; conditions: murine serum, 2, 4, and 6 h; 1 × MIC; inhibition zone; three replicate experiments
Experimental: as §1

`CC[C@H](C)[C@H](NC(=O)CNC(=O)[C@@H](NC(=O)[C@H](Cc1ccccc1)NC(=O)[C@H](Cc1ccc(O)cc1)NC(=O)[C@@H]1CCC(=O)NCC(=O)NCC(=O)N[C@@H](C)C(=O)NCC(=O)N[C@@H](Cc2cnc[nH]2)C(=O)N[C@@H](C(C)C)C(=O)N2CCC[C@H]2C(=O)N1)C(C)C)C(=O)NCC(=O)N[C@H](C(=O)N1CCC[C@H]1C(=O)N[C@H](C(=O)N[C@@H](CO)C(=O)N[C@@H](Cc1ccccc1)C(=O)N[C@@H](Cc1ccc(O)cc1)C(=O)NCC(=O)O)[C@@H](C)CC)[C@@H](C)O` [recombinant MccJ25, microcin J25] (GGAGHVPEYFVGIGTPISFYG-OH; lactam N-8) was tested, and the “growth inhibition of S. Pullorum after incubation with SIF” value (S. Pullorum [1]) was “still inhibited the growth of S. Pullorum in a manner similar to that of recombinant MccJ25 alone”, the “growth inhibition of S. Pullorum after incubation with SGF” value (S. Pullorum [2]) was “still inhibited the growth of S. Pullorum in a manner similar to that of recombinant MccJ25 alone” and the “antimicrobial activity after protease challenge” value (“antimicrobial activity” below) (trypsin) was “maintained its antimicrobial activity”. The “antimicrobial activity” value (pepsin) was “maintained its antimicrobial activity”, the “antimicrobial activity” value (chymotrypsin) was “maintained its antimicrobial activity” and the “growth inhibition of S. Pullorum after incubation with serum” value (S. Pullorum [3]) was “still inhibited the growth of S. Pullorum in a manner similar to that of recombinant MccJ25 alone”.
